Test system: C57BL/6J mice
Test: Glucokinase activator in vivo screen (blood glucose after oral dosing)
Settings: oral gavage 50 mg/kg after two hour fast, readings 1, 2, 4 and 6 hours post dose, p≦0.05 for two consecutive assay time points
Method: Glucokinase Activator in vivo Screen Protocol: C57BL/6J mice are orally dosed via gavage with Glucokinase (GK) activator at 50 mg/kg body weight following a two hour fasting period. Blood glucose determinations are made five times during the six hour post-dose study period.
Mice (n=6) are weighed and fasted for a two hour period prior to oral treatment.

Structure (SMILES)	decrease in blood glucose compared to vehicle
CS(=O)(=O)c1ccc([C@@H](CC2CCCC2)C(=O)Nc2cnc(C3OCCO3)cn2)cc1Cl [Example 41, 2(R)-(3-Chloro-4-methanesulfonyl-phenyl)-3-cyclopentyl-N-(5-[1,3]dioxolan-2-yl-pyrazin-2-yl)-propionamide]	statistically significant (p≦0.05) decrease in blood glucose
CS(=O)(=O)c1ccc([C@@H](CC2CCCC2)C(=O)Nc2cnc(CCC3(O)CCOCC3)cn2)cc1Cl [Example 51, 2(R)-(3-Chloro-4-methanesulfonyl-phenyl)-3-cyclopentyl-N-[5-(4-hydroxy-tetrahydropyran-4-yl-ethyl)-pyrazin-2-yl]-propionamide]	statistically significant (p≦0.05) decrease in blood glucose
COCC#Cc1cnc(NC(=O)[C@H](CC2CCCC2)c2ccc(S(C)(=O)=O)c(Cl)c2)cn1 [Example 47, 2(R)-(3-Chloro-4-methanesulfonyl-phenyl)-3-cyclopentyl-N-[5-(3-methoxy-prop-1-ynyl)-pyrazin-2-yl]-propionamide]	statistically significant (p≦0.05) decrease in blood glucose
COCCOc1cnc(NC(=O)[C@H](CC2CCCC2)c2ccc(S(C)(=O)=O)c(Cl)c2)cn1 [Example 43, 2(R)-(3-Chloro-4-methanesulfonyl-phenyl)-3-cyclopentyl-N-5-(2-methoxyethoxy-pyrazin-2-yl)-propionamide]	statistically significant (p≦0.05) decrease in blood glucose
CS(=O)(=O)c1ccc([C@@H](CC2CCCC2)C(=O)Nc2cnc(NCCO)cn2)cc1Cl [Example 73, 2(R)-(3-Chloro-4-methanesulfonyl-phenyl)-3-cyclopentyl-N-[5-(2-hydroxy-ethylamino)-pyrazin-2-yl]-propionamide]	statistically significant (p≦0.05) decrease in blood glucose
Cc1cc([C@@H](CC2CCCC2)C(=O)Nc2cnc(C#CC3(O)CCOCC3)cn2)ccc1S(C)(=O)=O [Example 59, 3-Cyclopentyl-N-[5-(4-hydroxy-tetrahydro-pyran-4-ylethynyl)-pyrazin-2-yl]-2(R)-(4-methanesulfonyl-3-methyl-phenyl)-propionamide]	statistically significant (p≦0.05) decrease in blood glucose
COC(OC)c1cnc(NC(=O)[C@H](CC2CCCC2)c2ccc(S(C)(=O)=O)c(Cl)c2)cn1 [Example 21, 2(R)-(3-Chloro-4-methanesulfonyl-phenyl)-3-cyclopentyl-N-(5-dimethoxymethyl-pyrazin-2-yl)-propionamide]	statistically significant (p≦0.05) decrease in blood glucose
CC(C)(O)C#Cc1cnc(NC(=O)[C@H](CC2CCCC2)c2ccc(S(C)(=O)=O)cc2)cn1 [Example 61, 3-Cyclopentyl-2(R)-(4-methanesulfonyl-phenyl)-N-[5-(3-hydroxy-3-methyl-but-1-ynyl)-pyrazin-2-yl]-propionamide]	statistically significant (p≦0.05) decrease in blood glucose
CS(=O)(=O)c1ccc([C@@H](CC2CCCC2)C(=O)Nc2cnc(C(O)C#N)cn2)cc1Cl (stereo partly drawn) [Example 26, 2(R)-(3-Chloro-4-methanesulfonyl-phenyl)-N-[5-(cyano-hydroxy-methyl)-pyrazin-2-yl]-3-cyclopentyl-propionamide]	statistically significant (p≦0.05) decrease in blood glucose
CS(=O)(=O)c1ccc([C@@H](CC2CCCC2)C(=O)Nc2cnc(OCCO)cn2)cc1Cl [Example 62, 2(R)-(3-Chloro-4-methanesulfonyl-phenyl)-3-cyclopentyl-N-[5-(2-hydroxy-ethoxy)-pyrazin-2-yl]-propionamide]	statistically significant (p≦0.05) decrease in blood glucose
CS(=O)(=O)c1ccc([C@@H](CC2CCCC2)C(=O)Nc2cnc(C#CC3(O)CCOCC3)cn2)cc1 [Example 46, 3-Cyclopentyl-N-5-[(4-hydroxy-tetrahydropyran-4-yl-ethynyl)pyrazin-2-yl]-2(R)-(4-methanesulfonyl-phenyl)-propionamide]	statistically significant (p≦0.05) decrease in blood glucose
CS(=O)(=O)c1ccc([C@@H](CC2CCCC2)C(=O)Nc2ccc(C3CCCO3)cn2)cc1Cl (stereo partly drawn) [Example 69, 2(R)-(3-Chloro-4-methanesulfonyl-phenyl)-3-cyclopentyl-N-[5-(tetrahydro-furan-2-yl)-pyridin-2-yl]-propionamide]	statistically significant (p≦0.05) decrease in blood glucose
CN(C)CCCc1cnc(NC(=O)[C@H](CC2CCCC2)c2ccc(S(C)(=O)=O)c(Cl)c2)cn1 [Example 16, 2(R)-(3-Chloro-4-methanesulfonyl-phenyl)-3-cyclopentyl-N-[5-(3-dimethylamino-propyl)-pyrazin-2-yl]-propionamide]	statistically significant (p≦0.05) decrease in blood glucose
CS(=O)(=O)c1ccc(C(CC2CCCC2)C(=O)Nc2cnc(C=O)cn2)cc1Cl (stereo not drawn) [Example 18, 2-(3-Chloro-4-methanesulfonyl-phenyl)-3-cyclopentyl-N-(5-formyl-pyrazin-2-yl)-propionamide]	statistically significant (p≦0.05) decrease in blood glucose
Cc1cc([C@@H](CC2CCCC2)C(=O)Nc2cnc([C@H](O)CO)cn2)ccc1S(C)(=O)=O [Example 58, 3-Cyclopentyl-N-[5-1(S),2-dihydroxy-ethyl]-2(R)-(4-methanesulfonyl-3-methyl)-propionamide]	statistically significant (p≦0.05) decrease in blood glucose
CS(=O)(=O)c1ccc([C@@H](CC2CCCC2)C(=O)Nc2cnc(-c3ccco3)cn2)cc1Cl [Example 70, 2(R)-(3-Chloro-4-methanesulfonyl-phenyl)-3-cyclopentyl-N-(5-furan-2-yl-pyrazin-2-yl)-propionamide]	statistically significant (p≦0.05) decrease in blood glucose
CS(=O)(=O)c1ccc(C(CC2CCCC2)C(=O)Nc2cnc(CC3SC(=O)NC3=O)cn2)cc1Cl (stereo not drawn) [Example 19, 2-(3-Chloro-4-methanesulfonyl-phenyl)-3-cyclopentyl-N-[5-(2,4-dioxo-thiazolidin-5-ylmethyl)-pyrazin-2-yl]-propionamide]	statistically significant (p≦0.05) decrease in blood glucose
CS(=O)(=O)c1ccc([C@@H](CC2CCCC2)C(=O)Nc2cnc(C#CCCO)cn2)cc1Cl [Example 53, 2(R)-(3-Chloro-4-methanesulfonyl-phenyl)-3-cyclopentyl-N-[5-(4-hydroxy-but-1-ynyl)-pyrazin-2-yl]-propionamide]	statistically significant (p≦0.05) decrease in blood glucose
CS(=O)(=O)c1ccc([C@@H](CC2CCCC2)C(=O)Nc2cnc(C3=CCCCO3)cn2)cc1Cl [Example 75, 2(1R)-(3-Chloro-4-methanesulfonyl-phenyl)-3-cyclopentyl-N-[5-(5,6-dihydro-4H-pyran-2-yl)-pyrazin-2-yl]-propionamide]	statistically significant (p≦0.05) decrease in blood glucose
C/C(=N/O)c1cnc(NC(=O)[C@H](CC2CCCC2)c2ccc(S(C)(=O)=O)c(Cl)c2)cn1 [Example 28, 2(R)-(3-Chloro-4-methanesulfonyl-phenyl)-3-cyclopentyl-N-[5-(1-(Z)-hydroxyimino-ethyl)-pyrazin-2-yl]-propionamide]	statistically significant (p≦0.05) decrease in blood glucose
CS(=O)(=O)c1ccc([C@@H](CC2CCCC2)C(=O)Nc2cnc(C#CCO)cn2)cc1Cl [Example 10, 2(R)-(3-Chloro-4-methanesulfonyl-phenyl)-3-cyclopentyl-N-[5-(3-hydroxy-prop-1-ynyl)-pyrazin-2-yl]-propionamide]	statistically significant (p≦0.05) decrease in blood glucose
Cc1cc([C@@H](CC2CCCC2)C(=O)Nc2cnc(C#CC(C)(C)O)cn2)ccc1S(C)(=O)=O [Example 57, 3-Cyclopentyl-N-[5-(3-hydroxy-3-methyl-but-1-ynyl)-pyrazin-2-yl]-2(R)-(4-methanesulfonyl-3-methyl-phenyl)-propionamide]	statistically significant (p≦0.05) decrease in blood glucose
CN(C)CC#Cc1cnc(NC(=O)[C@H](CC2CCCC2)c2ccc(S(C)(=O)=O)c(Cl)c2)cn1 [Example 11, 2(R)-(3-Chloro-4-methanesulfonyl-phenyl)-3-cyclopentyl-N-[5-(3-dimethylamino-prop-1-ynyl)-pyrazin-2-yl]-propionamide]	statistically significant (p≦0.05) decrease in blood glucose
CS(=O)(=O)c1ccc([C@@H](CC2CCCC2)C(=O)Nc2cnc([C@@H](O)CO)cn2)cc1Cl [Example 55]	statistically significant (p≦0.05) decrease in blood glucose
CS(=O)(=O)c1ccc([C@@H](CC2CCCC2)C(=O)Nc2cnc([C@H](O)CO)cn2)cc1Cl [Example 54, 2(R)-(3-Chloro-4-methanesulfonyl-phenyl)-3-cyclopentyl-N-[5-(1(S),2-dihydroxy-ethyl)-pyrazin-2-yl]-propionamide]	statistically significant (p≦0.05) decrease in blood glucose
CC(=O)c1cnc(NC(=O)C(CC2CCCC2)c2ccc(S(C)(=O)=O)c(Cl)c2)cn1 (stereo not drawn) [Example 23, N-(5-Acetyl-pyrazin-2-yl)-2-(3-chloro-4-methanesulfonyl-phenyl)-3-cyclopentyl-propionamide]	statistically significant (p≦0.05) decrease in blood glucose

Test system: not given
Test: not given
Settings: not given

melting point	Structure (SMILES)
71 to 77 °C	CSc1cnc(NC(=O)[C@H](CC2CCCC2)c2ccc(S(C)(=O)=O)cc2)cn1 [Example 5, 3-Cyclopentyl-2(R)-(4-methanesulfonyl-phenyl)-N-(5-methylsulfanyl-pyrazin-2-yl)-propionamide]

From US7132425B2, “5-substituted-six-membered heteroaromatic glucokinase activators” (Hoffmann-La Roche Inc., priority 2002, dated 2006)
